# Experimental data reported in patent US9701681B2, “Fused ring heteroaryl compounds and their use as Trk inhibitors” (CMG Pharmaceutical Co., Ltd., priority 2014, dated 2017).
# What was measured:
# TRK A, B & C kinase = biological target: T1, TRK A, B & C kinase; assay: TRK A, B & C kinase assay (ADP-Glo / HTRF KinEASE-TK); type: biochemical; settings: ADP-Glo or HTRF KinEASE-TK kit, isoform not specified, read-out: IC50 (nM) Enzymatic assay
# T1 construct: fused on or other part: Carna's Trk kinases are usually GST-tagged cytoplasmic domains
# Procedure, shortened: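 ADP-Glo: TrkA/B/C (0.4/0.5/3 ng/ul) with poly(Glu,Tyr), 1 h at 30° C, luminescence readout. HTRF: TRKA/B/C (0.3/0.1/0.03 ng/ul) at ATP 14.7/4.77/25.6 uM with TK-substrate, compound 0–100 nM for 40 min at RT, then detection by 665/620 ratio. Both give IC50 by curve fit.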
# TF-1 cells = assay: Cell proliferation assay (TF-1); settings: 10 ng/ml human β-NGF, 72 hours exposure, read-out: IC50 (nM) Cell-based assay (TF-1)
# Protocol: Doxorubicin was purchased from Sigma Aldrich (D1515). All compounds were diluted in DMSO (Sigma Aldrich, D2650). AlamarBlue® cell viability reagent was purchased from Thermo Scientific (88952). CellTiter 96® AQueous One Solution Cell proliferation assay was purchased from Promega. KM12-luc cells were obtained from JCRB (National Institute of Health Sciences, Tokyo, Japan). They were maintained in DMEM medium (GIB-11965-118) supplemented with 10% fetal bovine serum (Gibco, 16000-044) and MEM Non-Essential Amino Acids Solution (Thermo Scientific, 11140-050). TF-1 cells were obtained from ATCC. They were maintained in RPMI medium (GIB-A10491) supplemented with 10% fetal bovine serum (Gibco, 16000-044), GM-CSF (Thermo Scientific, 11140-050), and β-NGF (R&D systems). Trypsin/EDTA was purchased from Gibco (GIB-25300-054, 0.05%). 96-well plates were purchased from Corning Inc.
# The proliferation assay was performed for Chemical Compounds 1-61 s in media supplemented with 10% FBS, using AlamarBlue® cell viability reagent or CellTiter 96® AQueous One Solution Cell proliferation assay kit. Cells were cultured in humidified 37° C. incubator with 5% CO2. To evaluate the antiproliferation activity of compounds, TF-1 cells were adjusted to GM-CSF free media (RPMI, 10% FBS, and 1% penicillin-streptomycin) for 16 hr and were seeded in 96-well plates at 30,000 cells/well with medium (RPMI, 10% FBS, 1% penicillin-streptomycin and 10 ng/ml human β-NGF). KM12-luc were seeded at 10,000 cells per well into 96-well plates. After overnight incubation, serial dilutions of compounds were added to triplicate wells, and cells were exposed for 72 hours. The final concentration of DMSO was adjusted to 0.5% in media. Quantitation of cell growth was assessed using two kinds of reagent. 20 ul of AlamarBlue® reagent in an amount equal to 10% of the culture volume was added to each well and were incubated in humidified 37° C. incubator with 5% CO2 for 2 hr. Otherwise, 20 ul of CellTiter 96® reagent was added to each well and were incubated in the same conditions as previously described. Data were plotted, and GI50 values were calculated using GraphPad software. Table 1 below includes the results of the assays.
# KM12-luc cells = assay: Cell proliferation assay (KM12); settings: 72 hours exposure, read-out: IC50 (nM) Cell-based assay (KM12)
# Procedure, shortened: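 KM12-luc cells were seeded at 10,000/well. TF-1 cells were first held 16 hr without GM-CSF, then seeded at 30,000/well with 10 ng/ml human β-NGF. Cells were exposed in triplicate to serial dilutions for 72 h in 10% FBS with 0.5% DMSO at 37 °C, read by AlamarBlue or CellTiter 96 for 2 hr, and GI50 was fitted.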
"IC50 (TRK A, B & C kinase) [nM]",Compound,IC50 (TF-1 cells) [nM],IC50 (KM12-luc cells) [nM]
< 10,"O=C(/C=C/c1cnn2ccc(N3CCCC3c3cc(F)ccc3F)nc12)N1CC(O)C1 (stereo not drawn) [Chemical Compound 47, (E)-3-(5-(2-(2,5-difluorophenyl)pyrrolidin-1-yl)pyrazolo[1,5-a]pyrimidin-3-yl)-1-(3-hydroxyazetidin-1-yl)prop-2-en-1-one]",< 100,< 100
< 10,"O=C(/C=C/c1cnn2ccc(N3CCC[C@@H]3c3cc(F)ccc3F)nc12)NCCO [Chemical Compound 48, (R,E)-3-(5-(2-(2,5-difluorophenyl)pyrrolidin-1-yl)pyrazolo[1,5-a]pyrimidin-3-yl)-N-(2-hydroxyethyl)-acrylamide]",< 100,< 100
< 10,"O=C(/C=C/c1cnn2ccc(N3CCC[C@@H]3c3cc(F)ccc3F)nc12)N1CCOCC1 [Chemical Compound 49, (R,E)-3-(5-(2-(2,5-difluorophenyl)pyrrolidin-1-yl)pyrazolo[1,5-a]pyrimidin-3-yl)-1-morpholinoprop-2-en-1-one]",< 10,< 100
< 10,"O=C(/C=C/c1cnn2ccc(N3CCC[C@@H]3c3cc(F)ccc3F)nc12)N1CCNCC1 [Chemical Compound 50, (R,E)-3-(5-(2-(2,5-difluorophenyl)pyrrolidin-1-yl)pyrazolo[1,5-a]pyrimidin-3-yl)-1-(piperazin-1-yl)prop-2-en-1-one]",< 100,< 10

# Second part, the compound before the results:
Compound,"IC50 (TRK A, B & C kinase) [nM]",IC50 (TF-1 cells) [nM],IC50 (KM12-luc cells) [nM]
"COCCNC(=O)/C=C/c1cnn2ccc(N3CCCC3c3cc(F)ccc3F)nc12 (stereo not drawn) [Chemical Compound 46, (E)-3-(5-(2-(2,5-difluorophenyl)pyrrolidin-1-yl)pyrazolo[1,5-a]pyrimidin-3-yl)-N-(2-methoxyethyl)-acrylamide]",< 10,< 100,< 100
"O=C(C#Cc1cnn2ccc(N3CCCC3c3cc(F)ccc3F)nc12)N1CCOCC1 (stereo not drawn) [Chemical Compound 61, 3-(5-(2-(2,5-difluorophenyl)pyrrolidin-1-yl)pyrazolo[1,5-a]pyrimidin-3-yl)-1-morpholinoprop-2-yn-1-one]",< 10,< 100,< 100
